We go through six compounds from patent publication US6710168B1, “Glycopeptide antibiotics, combinatorial libraries of glycopeptide antibiotics and methods of producing same” (The Trustees of the University of Princeton, priority 1999, dated 2004).

Holding throughout (type): cell-based
Test [1] deals with Enterococcus faecalis CL5244, VanB. Nature of the test: MIC susceptibility test. The settings on record: Enterococcus faecalis CL5244, VanB; for MIC: read-out: MIC CL5244. The method in brief: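 MTT-based broth microdilution in cation-adjusted Mueller-Hinton broth; two-fold 12-step dilutions […], inoculum 10^6 CFU/mL, 37° C for 24 h.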
For test [2], the system named is gentamicin, streptmycin, vancomycin resistant Enterococcus faecalis (ATCC 51299). Nature of the test: microbe, parasite or virus in culture. The settings on record: for MIC VREF: Enterococcus faecalis ATCC51299, vancomycin resistance; for MIC: Enterococcus faecalis, ATCC51299, read-out: MIC VREF. A digest of the protocol: (§1)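 Broth microdilution in cation-adjusted Mueller-Hinton broth, 12-step two-fold series from 5 μg/mL to […], mixed 1:1 with 10^6 CFU/mL cell suspension and incubated 24 h at 37 °C. MTT (1 mg/mL solution) is then added for 30 min (S. aureus, MRSA) or 2 h (E. faecalis strains). MIC = lowest concentration inhibiting growth.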

The test system of test [3] is Bacillus cereus (ATCC 11778). Kind of test: MIC susceptibility test, microdilution with MTT readout. The settings on record: for MIC BC: Bacillus ceres ATCC11778; for MIC: Bacillus cereus, ATCC11778, read-out: MIC BC. A digest of the protocol: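 Bacillus cereus ATCC® 11778 susceptibility was measured by broth microdilution in 96-well microplates using Cation Adjusted Mueller-Hinton broth. Samples were diluted two-fold from 5 μg/mL over 12 steps. Each well combined 100 μL of cell suspension (10^6 CFU/mL) with 100 μL of antibiotic solution and was incubated at 37° C. for 24 h. Then 50 μL of MTT (1 mg/mL) was added for 30 min, and MIC (μg/mL) was read as the lowest concentration inhibiting growth.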
For orientation: Broth dilution looks for growth in wells or tubes with falling amounts of substance.

The test system of test [4] is Staphylococcus aureus (ATCC 29213). The description is as above. The settings on record: Staphylococcus aureus ATCC29213; for MIC: read-out: MIC SA. The method in brief: as §1
Test [5] relates to Enterococcus faecalis (ATCC 29212). The test is described as above. The settings on record: Enterococcus faecalis ATCC29212; for MIC: read-out: MIC EF. The method in brief:
as §1

For test [6], the system named is Methicillin resistant Staphylococcus aureus (ATCC 33591). The test is described as above. The settings on record: Staphylococcus aureus ATCC3359, Methicillin resistance; for MIC: ATCC 3359 / ATCC 33591 / MRSA, read-out: MIC MRSA. A digest of the protocol:
as §1

Test [7] deals with Enterococcus faecium CL5137, VanA. Kind of test: MIC susceptibility test. The settings on record: Enterococcus faecium CL5137, VanA; for MIC: read-out: MIC CL5137.

≈ marks a conversion by molar mass, not a printed value.

Turning to `CNC(CC(C)C)C(=O)NC1C(=O)NC(CC(N)=O)C(=O)NC2C(=O)NC3C(=O)NC(C(=O)NC(C(=O)O)c4cc(O)cc(O)c4-c4cc3ccc4O)C(O)c3ccc(c(Cl)c3)Oc3cc2cc(c3OC2OC(COS(=O)(=O)c3c(C)cc(C)cc3C)C(O)C(O)C2OC2CC(C)(N)C(O)C(C)O2)Oc2ccc(cc2Cl)C1O` (stereo not drawn) [XLI, Glucose-C6-mesitylenesulfonyl Vancomycin], in test [1], the “MIC CL5244” value worked out at 6.3 µg/mL (≈ 3.86 µM). The “MIC VREF” value in test [2] was found to be 1.3 µg/mL (≈ 0.797 µM). Also, the “MIC BC” value in test [3] amounted to 1.3 µg/mL (≈ 0.797 µM). The “MIC SA” value in test [4] is 0.63 µg/mL (≈ 0.386 µM). In test [5], the “MIC EF” value came out at 1.3 µg/mL (≈ 0.797 µM). Also, the “MIC MRSA” value in test [6] came to 1.3 µg/mL (≈ 0.797 µM). Besides, the “MIC CL5137” value in test [7] is given as 50< μg/mL.
For the compound `CN[C@@H](CC(C)C)C(=O)N[C@H]1C(=O)N[C@@H](CC(N)=O)C(=O)N[C@H]2C(=O)NC3C(=O)N[C@H](C(=O)N[C@@H](C(=O)O)c4cc(O)cc(O)c4-c4cc3ccc4O)[C@H](O)c3ccc(c(Cl)c3)Oc3cc2cc(c3OC2OC(CSc3nc(C)cc(O)n3)C(O)C(O)C2OC2CC(C)(NCc3ccc(-c4ccc(Cl)cc4)cc3)C(O)C(C)O2)Oc2ccc(cc2Cl)[C@H]1O` (stereo partly drawn) [LXXXV, N-4-(4-Chlorophenyl)benzylvancosamine-glucose-C6-2-thio-4-hydroxy-6-methylpyrimidine Vancomycin], the MIC turned out to be 0.4 µg/mL (≈ 0.225 µM) in test [1]; 0.32 µg/mL (≈ 0.18 µM) in test [2]; 1.3 µg/mL (≈ 0.733 µM) in test [3]; 1.9 µg/mL (≈ 1.07 µM) in test [4]; 0.32 µg/mL (≈ 0.18 µM) in test [5]; 1.3 µg/mL (≈ 0.733 µM) in test [6]. For the same compound, the MIC in test [7] turned out to be 6.3 µg/mL (≈ 3.55 µM).
In the case of `CN[C@@H](CC(C)C)C(=O)N[C@H]1C(=O)N[C@@H](CC(N)=O)C(=O)N[C@H]2C(=O)NC3C(=O)N[C@H](C(=O)N[C@@H](C(=O)O)c4cc(O)cc(O)c4-c4cc3ccc4O)[C@H](O)c3ccc(c(Cl)c3)Oc3cc2cc(c3OC2OC(CSc3nc(-c4ccccc4)c(-c4ccccc4)o3)C(O)C(O)C2OC2CC(C)(NCc3ccc(-c4ccc(Cl)cc4)cc3)C(O)C(C)O2)Oc2ccc(cc2Cl)[C@H]1O` (stereo partly drawn) [LXXXVII, N-4-(4-Chlorophenyl)benzylvancosamine-glucose-C6-2-thio-4,5-diphenyloxazole Vancomycin], the MIC in test [1] was 10 µg/mL (≈ 5.3 µM); in test [2] it was 5 µg/mL (≈ 2.65 µM); in test [3], above 5 µg/mL; in test [4], above 5 µg/mL; in test [5], 5 µg/mL (≈ 2.65 µM); in test [6], above 5 µg/mL. The MIC in test [7] amounted to 50 µg/mL (≈ 26.5 µM).
Take `CCCCCCCCCCNC1(C)CC(OC2C(Oc3c4cc5cc3Oc3ccc(cc3Cl)C(O)C3NC(=O)C(NC(=O)C5NC(=O)C(CC(N)=O)NC(=O)C(NC(=O)C(CC(C)C)NC)C(O)c5ccc(c(Cl)c5)O4)c4ccc(O)c(c4)-c4c(O)cc(O)cc4C(C(=O)O)NC3=O)OC(CNCc3ccc(-c4ccc(Cl)cc4)o3)C(O)C2O)OC(C)C1O` (stereo not drawn) [XLIX, Glucose-C6-N-5-(4-chlorophenyl)furan-1-methylene-vancosamine-N-decyl Vancomycin]: the “MIC CL5244” value in test [1] came out at 0.8 µg/mL (≈ 0.45 µM). Besides, in test [2], the “MIC VREF” value was found to be 1.3 µg/mL (≈ 0.731 µM). For the same compound, in test [3], the “MIC BC” value came to 3.8 µg/mL (≈ 2.14 µM). Moreover, the “MIC SA” value in test [4] worked out at 5.0 µg/mL (≈ 2.81 µM). In addition, the “MIC EF” value in test [5] stood at 1.9 µg/mL (≈ 1.07 µM). For the same compound, the “MIC MRSA” value in test [6] was 2.5 µg/mL (≈ 1.41 µM). In test [7], the “MIC CL5137” value worked out at 13 µg/mL (≈ 7.31 µM).
As for `CNC(CC(C)C)C(=O)NC1C(=O)NC(CC(N)=O)C(=O)NC2C(=O)NC3C(=O)NC(C(=O)NC(C(=O)O)c4cc(O)cc(O)c4-c4cc3ccc4O)C(O)c3ccc(c(Cl)c3)Oc3cc2cc(c3OC2OC(CN=P(c3ccccc3)(c3ccccc3)c3ccccc3)C(O)C(O)C2OC2CC(C)(NCc3ccc(-c4ccc(Cl)cc4)cc3)C(O)C(C)O2)Oc2ccc(cc2Cl)C1O.O=C(O)C(F)(F)F` (stereo not drawn) [CXXXVI, N-4-(4-Chlorophenyl)benzyl Vancosamine-glucose-C6-iminotriphenylphosphorane Vancomycin], the “MIC CL5244” value in test [1] was 0.32 µg/mL. In addition, in test [2], the “MIC VREF” value turned out to be 0.16 µg/mL. Moreover, in test [3], the “MIC BC” value amounted to 1.3 µg/mL. Moreover, the “MIC SA” value in test [4] stood at 1.3 µg/mL. Moreover, in test [5], the “MIC EF” value was determined as 0.32 µg/mL. In test [6], the “MIC MRSA” value is 0.32 µg/mL. Also, the “MIC CL5137” value in test [7] was determined as 5.0 µg/mL.
For the compound `CN[C@@H](CC(C)C)C(=O)N[C@H]1C(=O)N[C@@H](CC(N)=O)C(=O)N[C@H]2C(=O)NC3C(=O)N[C@H](C(=O)N[C@@H](C(=O)O)c4cc(O)cc(O)c4-c4cc3ccc4O)[C@H](O)c3ccc(c(Cl)c3)Oc3cc2cc(c3OC2OC(CSc3nc4cc(OC)ccc4[nH]3)C(O)C(O)C2OC2CC(C)(N)C(O)C(C)O2)Oc2ccc(cc2Cl)[C@H]1O` (stereo partly drawn) [LXV, Glucose-C6-2-thio-5-methoxybenzimidazole Vancomycin], the MIC amounted to 13 µg/mL (≈ 8.07 µM) in test [1]; 2.5 µg/mL (≈ 1.55 µM) in test [2]; 0.63 µg/mL (≈ 0.391 µM) in test [3]; 1.9 µg/mL (≈ 1.18 µM) in test [4]; 0.63 µg/mL (≈ 0.391 µM) in test [5]; 2.5 µg/mL (≈ 1.55 µM) in test [6]. For the same compound, in test [7], the MIC is above 50 µg/mL.
